Like-named read-outs stand apart in the source and are kept apart here.
Key:
PDE III = target: T1, PDE III (Homo sapiens, UniProt Q14432); assay: inhibition of PDE III isolated from human platelets; assay type: biochemical; settings: negative logarithm of IC50, cAMP 0.5 μmol/l; for IC50: read-out: PDE III hum. platelets -lg[IC50 ] (converted)
T1 construct: PDE III isolated from human platelets; from tissue; host or cells: human platelets
From the text: (§1) The specific inhibition of phosphodiesterase IV (PDE IV=high-affinity cAMP-PDE which cannot be inhibited by cGMP, rolipram-sensitive) is regarded as particularly indicative of an expected bronchospasmolytic and/or antiinflammatory effect. The specificity of the inhibition is moreover described by the ratio [IC50 ]PDE-III /[IC50 ]PDE-IV (PDE III=high-affinity cAMP-PDE which can be inhibited by cGMP) [H. Hidaka et al., Adv. Cycl. Nucl. Res. 13, 145 (1984); TiPS 5, 237 (1984); R. Weishaar et al., J. Med. Chem. 28, (1985); S. A. Harrison et al., Molec. Pharmac. 29, 506 (1986); J. Klein-Tebbe et al., Allergologie 12, 12 (1989); C. Schudt et al., Allergologie 12, 12, (1989); C. Schudt et al., Agents and Action 1991 in press; C. D. Nicholson et al., TiPS 12, (1), 19 (1991)].
(§2) For this reason, the PDE inhibition by the compounds according to the invention was determined on a PDE III isolated from human platelets and on PDE IV isolated from human polymorphonuclear neutrophilic cells (PMNs) and from the dog trachea. Phosphodiesterases III and IV are isolated by chromatography as described by Polson et al., Biochem. Pharmacol. 31, 3403-3406 (1982).
(§3) The substances are dissolved and diluted further in DMSO. 2.1 μl samples from a series of solutions diluted up to 100 fold are mixed with 212 μl of reaction mixture. The reaction mixture contains Hepes (100 mmol/l), DTE (5 mmol/l), MgCl2 (5 mmol/l), CaCl2 (10 μmol/l), BSA fraction V 0.5 mg, ml, cAMP 0.5 μmol/l, 2,8-^3 H-cAMP 250,000 cpm/ml (0.3 μCi/ml, S.A. […]), SV (snake venom) 25 μg/212 μl of test mixture.

[1] = test system: acetylcholine-induced bronchospasm; assay: protective effect against acetylcholine-induced bronchospasm in conscious guinea pigs; assay type: in vivo; settings: oral, 30 minutes after administration, percentage of protected animals
Procedure: In addition, the bronchospasmolytic effect was tested on the "protective effect against acetylcholine-induced bronchospasm in conscious guinea pigs" model:
Guinea pigs (250-350 g) are exposed in a closed Plexiglass cylinder (volume […] ) to an acetylcholine mist (0.06% in 0.9% sodium chloride solution; Heyer Use 77 ultrasonic atomizer) before administration of the substance and twice at an interval of 20 minutes after administration of the substance. The time from the start of atomization to the onset of marked breathing difficulties (in some cases hypoxic convulsion in the lateral position) is measured and called the latency time. An increase in the latency time after administration of the substance to at least three times the average latency time before administration of the substance is regarded as a protective effect, and the number of protected animals in the group is determined. […]
[…] After 30 minutes, the animals are again exposed to the acetylcholine mist and the latency times are measured. An increase in the latency time to at least three times the length is regarded as a protective effect.

PDE IV [2] = assay: inhibition of PDE IV isolated from human polymorphonuclear neutrophilic cells (PMNs); assay type: biochemical; settings: for PDE IV hum. PMNs -lg[IC50 ]: negative logarithm of IC50, cAMP 0.5 μmol/l; for [IC50 ] PDE III/[IC50 ] PDE IV PMNs: selectivity ratio, PDE III hum. platelets vs PDE IV hum. PMNs
From the text: as §1, §2, §3

PDE IV [3] = assay: inhibition of PDE IV isolated from dog trachea; assay type: biochemical; settings: for PDE IV dog trachea -lg[IC50 ]: negative logarithm of IC50, cAMP 0.5 μmol/l; for [IC50 ] PDE III/[IC50 ] PDE IV dog tr.: selectivity ratio, PDE III hum. platelets vs PDE IV dog trachea
From the text: as §1, §2, §3

[4] = test system: histamine-induced bronchospasm; assay: histamine-induced bronchospasm in anesthetized guinea pigs; assay type: in vivo; settings: 20 μmol/kg; for inhibition in vivo at 20 µmol/kg: Cavia porcellus, iv
Procedure: One histamine spasm before administration of the substance was compared with several histamine spasms after administration of the substance. The test substances were administered intravenously (i.v.) and/or intrajejunally (i.j.).

tracheal rings = assay: bronchospasmolytic effect on the chain of tracheal rings from guinea pigs in vitro; assay type: cell-based; settings: for EC50: Cavia porcellus, negative logarithm of EC50 mol/l, 50% of maximum achievable relaxation, read-out: -lg[EC50 ] (converted); for [EC50 ] theophylline/[EC50 ] substance: ratio of EC50 values, theophylline vs substance
Procedure: The bronchospasmolytic effect of the compounds on the chain of tracheal rings from guinea pigs was tested in vitro as follows:
Thus, a complete dose-effect plot for the test substance is obtained over a period of 20 to 30 minutes. The particular relaxation is expressed as a percentage fraction of the maximum relaxation achievable by administration of (-)isoprenaline (10^-6 mol/l).

[5] = Cavia porcellus, 0.5 h, 100 μmol/kg
[6] = after 1 h, read-out: % inhibition after 1 h of the histamine-induced decrease in Vmax
[7] = average 0-1 h after administration, read-out: % inhibition (0-1 h) of the histamine-induced decrease in Vmax

T1 sequence (Q14432 whole entry): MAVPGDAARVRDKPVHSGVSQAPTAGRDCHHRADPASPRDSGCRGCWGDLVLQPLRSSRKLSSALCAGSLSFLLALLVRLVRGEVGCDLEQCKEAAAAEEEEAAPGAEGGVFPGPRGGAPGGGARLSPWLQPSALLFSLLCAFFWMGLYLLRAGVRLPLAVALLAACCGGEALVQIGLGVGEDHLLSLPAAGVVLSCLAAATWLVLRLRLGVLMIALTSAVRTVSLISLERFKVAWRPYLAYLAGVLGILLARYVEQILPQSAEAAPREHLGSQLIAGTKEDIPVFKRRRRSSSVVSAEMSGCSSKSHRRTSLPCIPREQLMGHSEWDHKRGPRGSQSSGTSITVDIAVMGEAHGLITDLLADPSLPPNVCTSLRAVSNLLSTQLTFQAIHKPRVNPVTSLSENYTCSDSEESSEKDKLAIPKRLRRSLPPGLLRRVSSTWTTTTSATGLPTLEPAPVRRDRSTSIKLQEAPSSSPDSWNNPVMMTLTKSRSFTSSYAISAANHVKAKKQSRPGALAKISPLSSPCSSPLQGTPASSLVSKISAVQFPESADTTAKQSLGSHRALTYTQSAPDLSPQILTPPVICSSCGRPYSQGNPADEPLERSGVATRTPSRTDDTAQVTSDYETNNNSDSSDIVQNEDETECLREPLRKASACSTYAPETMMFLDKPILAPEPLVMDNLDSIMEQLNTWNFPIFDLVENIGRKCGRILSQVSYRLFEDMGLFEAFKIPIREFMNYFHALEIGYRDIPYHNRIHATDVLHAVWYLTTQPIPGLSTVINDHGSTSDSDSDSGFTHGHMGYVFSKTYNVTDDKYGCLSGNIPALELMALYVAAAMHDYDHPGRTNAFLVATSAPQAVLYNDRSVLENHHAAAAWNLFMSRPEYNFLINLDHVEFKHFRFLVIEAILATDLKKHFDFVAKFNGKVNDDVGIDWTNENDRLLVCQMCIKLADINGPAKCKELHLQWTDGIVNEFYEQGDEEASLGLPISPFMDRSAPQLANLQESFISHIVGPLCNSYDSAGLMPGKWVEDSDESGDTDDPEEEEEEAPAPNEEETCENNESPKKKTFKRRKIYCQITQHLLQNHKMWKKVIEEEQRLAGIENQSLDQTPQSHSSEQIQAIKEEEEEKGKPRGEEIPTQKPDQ

3-amino-6-(3-cyclopentyloxy-4methoxyphenyl)pyridazine [Serial No. 6]
PDE III hum. platelets -lg[IC50 ] (PDE III): < 4.0 | % protective effect ([1]; 30 μmol/kg): 50% | % protective effect ([1]; 100 μmol/kg): 70% | % protective effect ([1]; 300 μmol/kg): 80% | PDE IV hum. PMNs -lg[IC50 ] (PDE IV [2]): 6.18 | [IC50 ] PDE III/[IC50 ] PDE IV PMNs (PDE IV [2]): > 151 | PDE IV dog trachea -lg[IC50 ] (PDE IV [3]): 6.48 | [IC50 ] PDE III/[IC50 ] PDE IV dog tr. (PDE IV [3]): > 304 | % inhibition after 1 h of the histamine-induced decrease in Vmax ([4]; i.v., after 1 h): 20% | % inhibition (0-1 h) of the histamine-induced decrease in Vmax ([4]; i.v., average 0-1 h after administration): 34%

COc1ccc(-c2ccc(N)nn2)cc1OCC(C)C [Serial No. 2, 3-amino-6-[4-methoxy-3-(2-methylpropoxy)phenyl]pyridazine]
IC50 (PDE III): 209 µM | responders at 30 µmol/kg ([1]; Cavia porcellus, 0.5 h, 30 μmol/kg): 50% | responders at 100 µmol/kg [1, 5]: 80% | PDE IV dog trachea -lg[IC50 ] (PDE IV [3]): < 5.0 | [IC50 ] PDE III/[IC50 ] PDE IV dog tr. (PDE IV [3]): < 20.9

COc1ccc(-c2ccc(N)nn2)cc1OC1CCCCCC1 [Serial No. 8, 3-amino-6-(3-cycloheptyloxy-4-methoxyphenyl)pyridazine]
IC50 (PDE III): 77.6 µM | PDE IV dog trachea -lg[IC50 ] (PDE IV [3]): 5.37 | [IC50 ] PDE III/[IC50 ] PDE IV dog tr. (PDE IV [3]): 18.2

CCOc1ccc(-c2ccc(N)nn2)cc1OCC(C)C [compound 9]
IC50 (PDE III): 126 µM | EC50 (tracheal rings): 9.77 µM | [EC50 ] theophylline/[EC50 ] substance (tracheal rings): 13.8 | responders at 100 µmol/kg [1, 5]: 65% | PDE IV dog trachea -lg[IC50 ] (PDE IV [3]): 5.68 | [IC50 ] PDE III/[IC50 ] PDE IV dog tr. (PDE IV [3]): 60.2 | inhibition in vivo at 20 µmol/kg [4, 6]: 20% | inhibition in vivo at 20 µmol/kg [4, 7]: 16%

CCOc1cc(-c2ccc(N)nn2)ccc1OC(F)F [compound 10]
IC50 (PDE III): 224 µM | EC50 (tracheal rings): 8.32 µM | [EC50 ] theophylline/[EC50 ] substance (tracheal rings): 16.2 | responders at 100 µmol/kg [1, 5]: 50% | PDE IV dog trachea -lg[IC50 ] (PDE IV [3]): 5.37 | [IC50 ] PDE III/[IC50 ] PDE IV dog tr. (PDE IV [3]): 52.5 | inhibition in vivo at 20 µmol/kg [4, 6]: 44% | inhibition in vivo at 20 µmol/kg [4, 7]: 38%

COc1cc(-c2ccc(N)nn2)ccc1OC(F)F [compound 11]
IC50 (PDE III): 195 µM | EC50 (tracheal rings): 4.9 µM | [EC50 ] theophylline/[EC50 ] substance (tracheal rings): 27.6 | responders at 100 µmol/kg [1, 5]: 80% | PDE IV dog trachea -lg[IC50 ] (PDE IV [3]): 5.09 | [IC50 ] PDE III/[IC50 ] PDE IV dog tr. (PDE IV [3]): 22.9 | inhibition in vivo at 20 µmol/kg [4, 6]: 26% | inhibition in vivo at 20 µmol/kg [4, 7]: 30%

CCOc1ccc(-c2ccc(N)nn2)cc1OC(F)F [compound 12]
IC50 (PDE III): 316 µM | EC50 (tracheal rings): 4.47 µM | [EC50 ] theophylline/[EC50 ] substance (tracheal rings): 30.2 | responders at 100 µmol/kg [1, 5]: 50% | PDE IV dog trachea -lg[IC50 ] (PDE IV [3]): 4.42 | [IC50 ] PDE III/[IC50 ] PDE IV dog tr. (PDE IV [3]): 9.6

COc1ccc(-c2ccc(N)nn2)cc1OCC1CCC1 [compound 13]
IC50 (PDE III): 224 µM | responders at 100 µmol/kg [1, 5]: 65% | PDE IV dog trachea -lg[IC50 ] (PDE IV [3]): 4.88 | [IC50 ] PDE III/[IC50 ] PDE IV dog tr. (PDE IV [3]): 17.0

CCOc1cc(-c2ccc(N)[n+]([O-])n2)ccc1OC(F)F [compound 19]
IC50 (PDE III): 63.1 µM | EC50 (tracheal rings): 0.151 µM | [EC50 ] theophylline/[EC50 ] substance (tracheal rings): 893 | responders at 4 µmol/kg ([1]; Cavia porcellus, 0.5 h, 4 μmol/kg): 50% | PDE IV hum. PMNs -lg[IC50 ] (PDE IV [2]): 6.58 | [IC50 ] PDE III/[IC50 ] PDE IV PMNs (PDE IV [2]): 240 | PDE IV dog trachea -lg[IC50 ] (PDE IV [3]): 5.82 | [IC50 ] PDE III/[IC50 ] PDE IV dog tr. (PDE IV [3]): 41.7 | inhibition in vivo at 20 µmol/kg [4, 6]: 81% | inhibition in vivo at 20 µmol/kg [4, 7]: 71%

COc1cc(-c2ccc(N)[n+]([O-])n2)ccc1OC(F)F [compound 20]
IC50 (PDE III): 14.8 µM | EC50 (tracheal rings): 0.447 µM | [EC50 ] theophylline/[EC50 ] substance (tracheal rings): 302 | responders at 2 µmol/kg ([1]; Cavia porcellus, 0.5 h, 2 μmol/kg): 50% | PDE IV hum. PMNs -lg[IC50 ] (PDE IV [2]): 5.89 | [IC50 ] PDE III/[IC50 ] PDE IV PMNs (PDE IV [2]): 11.5 | PDE IV dog trachea -lg[IC50 ] (PDE IV [3]): 5.08 | [IC50 ] PDE III/[IC50 ] PDE IV dog tr. (PDE IV [3]): 1.8 | inhibition in vivo at 20 µmol/kg [4, 6]: 48% | inhibition in vivo at 20 µmol/kg [4, 7]: 40%

From US5449676A, “Pyridazines” (priority 1991, dated 1995)
